Results taken from patent US20140038920A1, “TFEB PHOSPHORYLATION INHIBITORS AND USES THEREOF” (FONDAZIONE TELETHON, priority 2011, published 2014).
pEC50: −log10 of the molar value.

What was measured:
[1] = system: long-lived protein degradation in TFEB-overexpressing cells; assay: Degradation of long-lived proteins (FIG. 8); format: cell-based; settings: 3-MA added during 4 h incubation
Protocol: FIG. 8 TFEB increases autophagic proteolysis. Rate of long-lived protein degradation in TFEB-overexpressing, TFEB-depleted and control cells in either normal or starved condition. 3-methyl adenine (3MA) was added where indicated (Error bars represent standard deviations. p value (*)<0.05).
Sub-confluent cells were incubated with L-U^14C-serine for 20 h and chased for 1 h with cold media to degrade short-lived proteins. Subsequently cells were incubated with either normal media or starvation media (eventually in the presence of 3-MA) for 4 h. The rate of long-lived protein degradation was calculated from the ratio of soluble radioactivity in the media to that insoluble in the acid-precipitable cell pellet.
The applicants next measured the rate of delivery of autophagosome to lysosome using an RFP-GFP tandem tagged LC3 protein (9), which discriminates early autophagic organelles (GFP-positive/mRFP-positive) from acidified autolysosomes (GFP-negative/mRFP-positive), as the GFP signal (but not the mRFP) is quenched inside acidic compartments (9). […] Functional evidence of TFEB role in the regulation of autophagy came from the observation that degradation of long-lived proteins was enhanced by TFEB overexpression, and reduced by TFEB knock-down. This enhancement was abolished by the autophagy inhibitor 3-methyl adenine (3-MA) (10) (FIG. 8).

TFEB [2] = assay: TFEB nuclear localization in starved HeLa cells overexpressing TFEB, re-stimulated with media plus supplements or inhibitors (nuclear fractionation, Flag blot, immunofluorescence); format: cell-based; settings: for TFEB nuclear translocation compared to starved media alone: EBSS media supplemented with growth factor or cytokine (FIG. 2f)
Text: (A) Scatter Plot graphs displaying the logarithmic value of the fold change differences in the relative expression levels of 51 autophagy-related genes in HeLa cells cultured in different conditions. X-axis=control group. Y-axis=treated group. Circles represent genes with increased (red) or decreased (green) fold change. Comparisons were as indicated. (B) Chromatin immunoprecipitation (ChIP) analysis. […] Values were normalized to the input and plotted as relative enrichment over a mock control. Experiments were performed in triplicate. (C) qPCR analysis of TFEB-target gene expression in normal, starved, and in TFEB-siRNA starved cells. GAPDH and HPRT represents housekeeping genes, while ATG10, ATG9A and ATG4D represent control genes (non-TFEB target genes). (D-F) HeLa cells stably overexpressing TFEB were left untreated or nutrient starved for 4 h. (D) Five fields containing 50-100 cells/each were analyzed for TFEB nuclear localization. […] (E) Cells were subjected to nuclear/cytosolic fractionation and blotted with Flag antibody. H3 and tubulin were used as nuclear and cytosolic markers, respectively. (F) Nuclear fractions were blotted with Flag and H3 (loading control) antibodies. (G) Western blot analysis of Flag, tubulin and H3 in nuclear extracts prepared from normal, starved and starved/stimulated with normal media cells for 1 h (normal) or pretreated with AP-2 (AKT inhibitor), Rapamycin (mTOR inhibitor) and U0126 (MEK inhibitor) 1 h prior to media stimulation. Total extracts were used to verify the efficiency of the inhibitors. […] Starvation was performed where indicated. (All error bars represent standard deviations. T-test (unpaired) p value (*)<0.05, (**)<0.01)
Cytosolic and nuclear fractions were subjected to Flag immunoblotting. […] Error bars represent standard deviations.
Cells were seeded at 50% of confluence in 6 well dishes and serum starved overnight (ON). Normal medium was added the following day either in presence of DMSO or kinase inhibitors. Subcellular fractionation was carried out as previously reported.
To identify the mechanism of starvation-induced activation of TFEB, the applicants analyzed its subcellular localization and post-translational modifications in starved cells.

TFEB [3] = assay: High content TFEB-GFP nuclear translocation assay; format: cell-based; settings: Homo sapiens; TFEB-GFP HeLa cells, 3 h, ten concentrations 2.54 nM to 50 μM (FIG. 19D); read-out: EC50, TFEB nuclear translocation
Protocol: (§1) Immunoblotting of protein extracts isolated from HeLa cells treated overnight, as indicated. Membranes were probed with antibodies for p-T202/Y204-ERK1/2, ERK1/2, p-T389-S6K, and S6K to measure ERK and mTORC1 activities. […] FLAG immunoblotting of cytosolic and nuclear fractions isolated from TFEB-3×FLAG HeLa cells cultured in amino acid-free media and subsequently stimulated as indicated for at least 3 h. Correct subcellular fractionation was verified with H3 and tubulin antibodies. […] After 3 h at 37° C. in RPMI medium containing one of each of the compounds, the cells were washed, fixed, and stained with DAPI and photographed by using confocal automated microscopy (Opera high content system, Perkin Elmer). […] Scale bars represent 30 μm. […] The EC50 for each compound was calculated using Prism software (see Materials and Methods for details). […] Antibody used were p-T389-S6K, S6K and FLAG. […] HeLa cells stably expressing Flag-3×TFEB were infected with lentiviruses encoding a Short hairpin (Sh-) RNA targeting luciferase (control) or RagC and RagD mRNAs. […] TFEB localization was detected with a FLAG antibody, whereas tubulin and H3 were used as controls for the cytosolic and nuclear fraction, respectively; levels of S6K phosphorylation were used to test RagC and RagD knockdown efficiency.
After 3 hours at 37° C. in RPMI medium cells were washed, fixed, and stained with DAPI. For the acquisition of the images, ten pictures per each well of the 384-well plate were taken by using confocal automated microscopy (Opera high content system, Perkin Elmer). A dedicated script was developed to perform the analysis of TFEB localization on the different images (Acapella software, Perkin Elmer). The script calculates the ratio value resulting from the average intensity of nuclear TFEB-GFP fluorescence divided by the average of the cytosolic intensity of TFEB-GFP fluorescence. The results were normalized using negative (RPMI medium) and positive (HBSS starvation) control samples in the same plate. The data are represented by the percentage of nuclear translocation at the different concentrations of each compound using Prism software (GraphPad software). The EC50 for each compound was calculated using non-linear regression fitting (Prism software).
In order to find additional small molecules able to induce the translocation of TFEB from the cytosol to the nucleus, the applicants developed a cell-based high content assay using stable HeLa cells overexpressing TFEB fused to the green fluorescent protein (TFEB-GFP). In the assay imaging of treated cells is acquired by an automated confocal microscope (OPERA system) and the analysis of those images with Acapella image software calculates the ratio of the average of fluorescence intensity of TFEB-GFP between the cytosol and nucleus of the cell (see Materials and methods for details). […] They tested ten concentrations for each inhibitor.

TFEB [4] = assay: TFEB molecular weight shift and localization in TFEB-3xFLAG HeLa cells stimulated with amino-acid rich medium plus inhibitor (FIG. 19B); format: cell-based; settings: Torin 1 250 nM, Rapamycin 2.5 μM, U0126 50 μM
Protocol: FIG. 19 mTORC1 regulates TFEB. (A) Lysosomal stress inhibits mTOR signaling. Immunoblotting of protein extracts isolated from HeLa cells treated overnight, as indicated. Membranes were probed with antibodies for p-T202/Y204-ERK1/2, ERK1/2, p-T389-S6K, and S6K to measure ERK and mTORC1 activities. […] FLAG immunoblotting of cytosolic and nuclear fractions isolated from TFEB-3×FLAG HeLa cells cultured in amino acid-free media and subsequently stimulated as indicated for at least 3 h. Correct subcellular fractionation was verified with H3 and tubulin antibodies. (C, D) Effects and dose—response curves of ERK and mTOR inhibitors on TFEB nuclear translocation. […] After 3 h at 37° C. in RPMI medium containing one of each of the compounds, the cells were washed, fixed, and stained with DAPI and photographed by using confocal automated microscopy (Opera high content system, Perkin Elmer). (C) Representative images of test concentrations for each compound. Scale bars represent 30 μm. […] The EC50 for each compound was calculated using Prism software (see Materials and Methods for details). (E) Amino acids induce TFEB molecular weight shift. Immunoblotting of protein extracts isolated from HEK-293T cells transfected either TFEB-3×FLAG or with an empty vector were nutrient starved and stimulated for 50 minutes with amino acids (a.a.). Antibody used were p-T389-S6K, S6K and FLAG. (F) Rag knockdown induces TFEB nuclear translocation. HeLa cells stably expressing Flag-3×TFEB were infected with lentiviruses encoding a Short hairpin (Sh-) RNA targeting luciferase (control) or RagC and RagD mRNAs. […] TFEB localization was detected with a FLAG antibody, whereas tubulin and H3 were used as controls for the cytosolic and nuclear fraction, respectively; levels of S6K phosphorylation were used to test RagC and RagD knockdown efficiency.
(§2) The mouse anti-TFEB monoclonal antibody was purchased from My Biosource catalogue No. MBS 120432. To generate anti-pS142 specific antibodies, rabbits were immunized with the following peptide coupled to KLH: AGNSAPN{pSer}[…]. Following the fourth immunization, rabbits were sacrificed and the serum was collected. Non-phosphospecific antibodies were depleted from the serum by circulation through a column containing the nonphosphorylated antigene. The phosphospecific antibodies were subsequently purified using a column containing the phosphorylated peptide. Cells were lysed with M-PER buffer (Thermo) containing protease and phosphatase inhibitors (Sigma); nuclear/cytosolic fractions were isolated as above described. Proteins were separated by SDS-PAGE (Invitrogen; reduced NuPAGE 4-12% Bis-tris Gel, MES SDS buffer). If needed, the gel was stained using 20 ml Imperial Protein Stain (Thermo Fisher) at room temperature for 1 h and de-stained with water. […]

TFEB [5] = assay: Lysosomal stress: TFEB-3xFLAG nuclear/cytoplasmic fractionation immunoblot in HeLa and HEK-293T cells (FIG. 18); format: cell-based; settings: treated overnight; chloroquine 100 μM, Salicylihalamide A 2 μM
Text: FIG. 18 Lysosomal stress induces TFEB nuclear translocation. […] Histone 3 (H3) and tubulin were used as nuclear and cytosolic markers, respectively. Blots are representative of triplicate experiments.
as §2
TFEB subcellular localization was then analysed in HeLa and HEK-293T cells transiently transfected with a TFEB-3×FLAG plasmid and treated overnight with inhibitors of lysosomal function.

mTORC1 = mTORC1 activity by level of p-P70S6K in HeLa cells treated overnight (FIG. 19A); format: cell-based
Protocol: as §1

mTOR = mTOR (Mus musculus, UniProt Q9JLN9); settings: primary hepatocytes treated overnight
Text: (§3) Subsequently, cells were lysed and protein extracts were immunoblotted with the indicated antibodies. […] Quantitative PCR (qPCR) of TFEB target genes in primary hepatocytes from control (flox/flox) and Tcfeb−/− (flox/flox; alb-Cre) mice. […] The expression levels are shown as % increased expression of the treated versus the corresponding untreated samples. Values represent means±s.d. of three independent hepatocyte preparations (three mice/genotype). Student's t-test (two tailed) *P-value ≦0.05.

TFEB target genes = assay: qPCR of TFEB target genes in primary hepatocytes (FIG. 21B, C); format: cell-based, mouse; settings: hepatocytes from TFEB conditional knockout mice (Tcfebflox/flox; alb-CRE)
Text: as §3

Compound: Cn1cnc(N)c2ncnc1-2 [3-methyl adenine]
- enhancement of long-lived protein degradation by TFEB overexpression [1]: abolished

Compound: N#CC(=C(/N)Sc1ccccc1N)/C(C#N)=C(\N)Sc1ccccc1N [U0126]
- TFEB nuclear localization (TFEB [2]; starved cells stimulated with normal medium supplemented with kinase inhibitor (FIG. 2g, 11b)): TFEB nuclear localization, at level similar to starvation
- pEC50 (TFEB [3]): 4.09
- TFEB molecular weight shift induced by nutrients (TFEB [4]): only a partial TFEB molecular weight shift

Compound: CC/C=C\C=C/C(=O)N/C=C/C[C@H]1C[C@@H](O)[C@@H](C)C/C=C/Cc2cccc(O)c2C(=O)O1 [Salicylihalamide A]
- nuclear translocation of exogenously expressed TFEB (TFEB [5]): induced nuclear translocation
- mTORC1 activity as level of p-P70S6K (mTORC1): inhibited mTORC1 activity

Compound: EGF: growth factor supplemented to EBSS media (NSDSECPLSHDGYCLHDGVCMYIEALDKYACNCVVGYIGERCQYRDLKWWELR; UniProt P01133 971-1023, looked up)
- TFEB nuclear translocation compared to starved media alone (TFEB [2]): significant inhibition

Compound: LIF: cytokine supplemented to EBSS media
- TFEB nuclear translocation compared to starved media alone (TFEB [2]): Almost no effect

Compound: insulin
- TFEB nuclear translocation compared to starved media alone (TFEB [2]): significant inhibition

Compound: CCN(CC)CCCC(C)Nc1ccnc2cc(Cl)ccc12 (stereo not shown) [chloroquine]
- mTOR activity as level of p-S6K (mTOR): inhibited mTOR
- transcriptional response of TFEB target genes versus control hepatocytes (TFEB target genes): significantly blunted
- nuclear translocation of exogenously expressed TFEB (TFEB [5]): induced nuclear translocation
- mTORC1 activity as level of p-P70S6K (mTORC1): inhibited mTORC1 activity
